This assay concerns the target GCN2 (Homo sapiens, UniProt Q9P2K8). In words: TR-FRET biochemical assay for inhibition of GCN2 (Example 106, for Example 1-4BB). The note with it: Table 8.
Sequence of GCN2 (Q9P2K8 whole entry): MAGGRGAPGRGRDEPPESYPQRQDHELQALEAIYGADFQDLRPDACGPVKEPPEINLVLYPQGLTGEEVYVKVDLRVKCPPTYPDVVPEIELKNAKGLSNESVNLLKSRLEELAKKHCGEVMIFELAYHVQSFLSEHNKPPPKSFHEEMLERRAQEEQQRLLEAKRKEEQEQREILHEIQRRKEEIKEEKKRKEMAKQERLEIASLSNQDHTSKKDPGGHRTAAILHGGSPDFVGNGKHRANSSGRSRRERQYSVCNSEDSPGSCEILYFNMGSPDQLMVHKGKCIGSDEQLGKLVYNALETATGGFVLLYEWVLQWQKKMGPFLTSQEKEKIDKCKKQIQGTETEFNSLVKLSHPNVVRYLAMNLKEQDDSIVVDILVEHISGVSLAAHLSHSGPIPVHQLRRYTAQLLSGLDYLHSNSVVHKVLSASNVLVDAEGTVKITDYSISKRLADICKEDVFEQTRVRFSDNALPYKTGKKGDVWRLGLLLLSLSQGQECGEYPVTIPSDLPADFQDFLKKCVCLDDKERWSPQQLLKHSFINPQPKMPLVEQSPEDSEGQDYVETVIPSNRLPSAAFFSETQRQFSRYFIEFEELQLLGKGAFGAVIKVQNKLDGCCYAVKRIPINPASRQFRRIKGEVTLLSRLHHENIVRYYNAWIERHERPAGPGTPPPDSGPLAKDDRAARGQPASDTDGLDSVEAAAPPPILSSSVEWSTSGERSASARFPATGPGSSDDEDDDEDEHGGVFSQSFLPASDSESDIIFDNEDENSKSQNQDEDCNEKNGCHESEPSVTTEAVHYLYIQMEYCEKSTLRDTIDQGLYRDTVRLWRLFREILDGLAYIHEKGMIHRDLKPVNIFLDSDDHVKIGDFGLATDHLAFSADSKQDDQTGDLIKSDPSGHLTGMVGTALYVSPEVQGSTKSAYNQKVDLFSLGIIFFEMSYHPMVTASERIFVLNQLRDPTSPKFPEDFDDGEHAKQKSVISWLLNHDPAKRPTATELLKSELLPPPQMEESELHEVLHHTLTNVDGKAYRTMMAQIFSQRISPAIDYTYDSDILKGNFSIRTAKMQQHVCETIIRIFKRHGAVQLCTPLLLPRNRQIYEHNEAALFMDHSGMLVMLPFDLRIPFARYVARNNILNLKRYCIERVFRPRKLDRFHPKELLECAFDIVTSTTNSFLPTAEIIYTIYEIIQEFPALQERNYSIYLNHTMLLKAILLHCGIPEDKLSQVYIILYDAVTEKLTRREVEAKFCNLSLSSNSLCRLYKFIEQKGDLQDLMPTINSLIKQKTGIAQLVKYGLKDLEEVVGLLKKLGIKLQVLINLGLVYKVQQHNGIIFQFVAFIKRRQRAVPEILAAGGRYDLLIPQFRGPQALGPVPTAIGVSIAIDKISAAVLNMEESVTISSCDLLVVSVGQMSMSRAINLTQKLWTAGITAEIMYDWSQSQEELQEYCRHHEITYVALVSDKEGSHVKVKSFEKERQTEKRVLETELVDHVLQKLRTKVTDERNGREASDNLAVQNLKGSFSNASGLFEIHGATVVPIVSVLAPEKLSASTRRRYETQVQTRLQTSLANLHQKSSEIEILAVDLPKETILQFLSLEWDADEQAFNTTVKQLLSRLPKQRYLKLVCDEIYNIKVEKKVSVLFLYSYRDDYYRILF
Turning to `Cc1ccc(S(=O)(=O)Nc2ccc(F)c(-c3ccc4c(-c5ncc[nH]5)n[nH]c4c3F)c2F)cc1` [Example 1, N-(2,4-difluoro-3-(7-fluoro-3-(1H-imidazol-2-yl)-1H-indazol-6-yl)phenyl)-4-methylbenzenesulfonamide], the IC50 is 500 to 2500 nM. `Cc1ncccc1S(=O)(=O)Nc1ccc(F)c(-c2ccc3c(-c4ncc[nH]4)n[nH]c3c2F)c1F` [Example 2, N-(2,4-difluoro-3-(7-fluoro-3-(1H-imidazol-2-yl)-1H-indazol-6-yl)phenyl)-2-methylpyridine-3-sulfonamide] registered an IC50 of under 500 nM. The molecule `Cc1ccc(S(=O)(=O)Nc2ccc(F)c(-c3ccc4c(-c5ncc[nH]5)n[nH]c4c3F)c2F)c(C)n1` [Example 2AA, N-(2,4-difluoro-3-(7-fluoro-3-(1H-imidazol-2-yl)-1H-indazol-6-yl)phenyl)-2,6-dimethyl-pyridine-3-sulfonamide] came in with an IC50 of under 500 nM. `Cc1ncc(F)cc1S(=O)(=O)Nc1ccc(F)c(-c2ccc3c(-c4ncc[nH]4)n[nH]c3c2F)c1F` [Example 2AB, N-(2,4-difluoro-3-(7-fluoro-3-(1H-imidazol-2-yl)-1H-indazol-6-yl)phenyl)-5-fluoro-2-methylpyridine-3-sulfonamide] returned an IC50 of under 500 nM. In the case of `O=c1[nH]cccc1S(=O)(=O)Nc1ccc(F)c(-c2ccc3c(-c4ncc[nH]4)n[nH]c3c2F)c1F` [Example 2AC, N-(2,4-difluoro-3-(7-fluoro-3-(1H-imidazol-2-yl)-1H-indazol-6-yl)phenyl)-2-oxo-1,2-dihydro-pyridine-3-sulfonamide], the IC50 lay in the range of 2500 to 10000 nM. As to `COc1ncc(Cl)cc1S(=O)(=O)Nc1cccc(-c2ccc3c(-c4ncc[nH]4)n[nH]c3c2F)c1C#N` [Example 2AD, 5-chloro-N-(2-cyano-3-(7-fluoro-3-(1H-imidazol-2-yl)-1H-indazol-6-yl)phenyl)-2-methoxypyridine-3-sulfonamide], the IC50 was under 500 nM. `Cc1oncc1S(=O)(=O)Nc1ccc(F)c(-c2ccc3c(-c4ncc[nH]4)n[nH]c3c2F)c1F` [Example 2AE, N-(2,4-difluoro-3-(7-fluoro-3-(1H-imidazol-2-yl)-1H-indazol-6-yl)phenyl)-5-methylisoxazole-4-sulfonamide]: the IC50 was over 10000 nM.

Molecule `O=S(=O)(Nc1ccc(F)c(-c2ccc3c(-c4ncc[nH]4)n[nH]c3c2F)c1F)c1cc(Cl)cc(CO)c1Cl` [Example 2AF, 2,5-dichloro-N-(2,4-difluoro-3-(7-fluoro-3-(1H-imidazol-2-yl)-1H-indazol-6-yl)-phenyl)-3-(hydroxyl-methyl)benzenesulfonamide] came in with an IC50 of under 500 nM. For `O=S(=O)(Nc1ccc(F)c(-c2ccc3c(-c4ncc[nH]4)n[nH]c3c2F)c1F)c1cccc(F)c1F` [Example 2AG, N-(2,4-difluoro-3-(7-fluoro-3-(1H-imidazol-2-yl)-1H-indazol-6-yl)phenyl)-2,3-difluorobenzenesulfonamide], the IC50 is under 500 nM. The value for `Cc1cnc(C)c(S(=O)(=O)Nc2ccc(F)c(-c3ccc4c(-c5ncc[nH]5)n[nH]c4c3F)c2F)c1` [Example 2AH, N-(2,4-difluoro-3-(7-fluoro-3-(1H-imidazol-2-yl)-1H-indazol-6-yl)phenyl)-2,5-dimethyl-pyridine-3-sulfonamide] was under 500 nM; that for `Cc1cccc(S(=O)(=O)Nc2ccc(F)c(-c3ccc4c(-c5ncc[nH]5)n[nH]c4c3F)c2F)c1C` [Example 2AI, N-(2,4-difluoro-3-(7-fluoro-3-(1H-imidazol-2-yl)-1H-indazol-6-yl)phenyl)-2,3-dimethylbenzenesulfonamide] was under 500 nM. The molecule `Cn1cccc(S(=O)(=O)Nc2ccc(F)c(-c3ccc4c(-c5ncc[nH]5)n[nH]c4c3F)c2F)c1=O` [Example 2AJ, N-(2,4-difluoro-3-(7-fluoro-3-(1H-imidazol-2-yl)-1H-indazol-6-yl)phenyl)-1-methyl-2-oxo-1,2-dihydro-pyridine-3-sulfonamide] returned an IC50 of 2500 to 10000 nM. The molecule `COc1ncc(Cl)cc1S(=O)(=O)Nc1ncnc(-c2ccc3c(-c4ncc[nH]4)n[nH]c3c2F)c1F` [Example 2AK, 5-chloro-N-(5-fluoro-6-(7-fluoro-3-(1H-imidazol-2-yl)-1H-indazol-6-yl)pyrimidin-4-yl)-2-methoxypyridine-3-sulfonamide] had an IC50 of under 500 nM.

The molecule `O=c1cccc(S(=O)(=O)Nc2ccc(F)c(-c3ccc4c(-c5ncc[nH]5)n[nH]c4c3F)c2F)[nH]1` [Example 2AL, N-(2,4-difluoro-3-(7-fluoro-3-(1H-imidazol-2-yl)-1H-indazol-6-yl)phenyl)-6-oxo-1,6-dihydropyridine-2-sulfonamide] showed an IC50 of 2500 to 10000 nM.

For the molecule `COc1cccc(S(=O)(=O)Nc2ccc(F)c(-c3ccc4c(-c5ncc[nH]5)n[nH]c4c3F)c2F)n1` [Example 2AM, N-(2,4-difluoro-3-(7-fluoro-3-(1H-imidazol-2-yl)-1H-indazol-6-yl)phenyl)-6-methoxypyridine-2-sulfonamide], the IC50 fell in the range of 500 to 2500 nM.

The molecule `Cn1cc(Cl)cc(S(=O)(=O)Nc2ccc(F)c(-c3ccc4c(-c5ncc[nH]5)n[nH]c4c3F)c2F)c1=O` [Example 2AN, 5-chloro-N-(2,4-difluoro-3-(7-fluoro-3-(1H-imidazol-2-yl)-1H-indazol-6-yl)phenyl)-1-methyl-2-oxo-1,2-dihydro-pyridine-3-sulfonamide] displayed an IC50 of under 500 nM. `COc1ncc(Cl)cc1S(=O)(=O)Nc1cc(C)nc(-c2ccc3c(-c4ncc[nH]4)n[nH]c3c2F)c1F` [Example 2AO, 5-chloro-N-(3-fluoro-2-(7-fluoro-3-(1H-imidazol-2-yl)-1H-indazol-6-yl)-6-methyl-pyridin-4-yl)-2-methoxy-pyridine-3-sulfonamide]: the IC50 is 2500 to 10000 nM. With `COc1cccc(S(=O)(=O)Nc2ccc(F)c(-c3ccc4c(-c5ncc[nH]5)n[nH]c4c3F)c2F)c1F` [Example 2AP, N-(2,4-difluoro-3-(7-fluoro-3-(1H-imidazol-2-yl)-1H-indazol-6-yl)phenyl)-2-fluoro-3-methoxybenzene-sulfonamide], the IC50 was under 500 nM.

Turning to `O=S(=O)(Nc1ccc(F)c(-c2ccc3c(-c4ncc[nH]4)n[nH]c3c2F)c1F)c1cccc(O)c1F` [Example 2AQ, N-(2,4-difluoro-3-(7-fluoro-3-(1H-imidazol-2-yl)-1H-indazol-6-yl)phenyl)-2-fluoro-3-hydroxybenzene-sulfonamide], the IC50 was under 500 nM. In turn, `COc1cccc(S(=O)(=O)Nc2ccc(F)c(-c3ccc4c(-c5ncc[nH]5)n[nH]c4c3F)c2F)c1C` [Example 2AR, N-(2,4-difluoro-3-(7-fluoro-3-(1H-imidazol-2-yl)-1H-indazol-6-yl)phenyl)-3-methoxy-2-methylbenzene-sulfonamide] showed an IC50 of 500 to 2500 nM. The value for `COc1ncc(Cl)cc1S(=O)(=O)Nc1ccc(F)c(-c2ccc3c(C(=O)N(C)C)n[nH]c3c2F)c1F` [Example 2AS, 6-(3-((5-chloro-2-methoxy-pyridine)-3-sulfonamido)-2,6-difluorophenyl)-7-fluoro-N,N-dimethyl-1H-indazole-3-carboxamide] was 500 to 2500 nM; that for `Cc1cccc(F)c1S(=O)(=O)Nc1ccc(F)c(-c2ccc3c(-c4ncc[nH]4)n[nH]c3c2F)c1F` [Example 2AT, N-(2,4-difluoro-3-(7-fluoro-3-(1H-imidazol-2-yl)-1H-indazol-6-yl)phenyl)-2-fluoro-6-methylbenzene-sulfonamide] was under 500 nM; that for `Cc1c(O)cccc1S(=O)(=O)Nc1ccc(F)c(-c2ccc3c(-c4ncc[nH]4)n[nH]c3c2F)c1F` [Example 2AU, N-(2,4-difluoro-3-(7-fluoro-3-(1H-imidazol-2-yl)-1H-indazol-6-yl)phenyl)-3-hydroxy-2-methylbenzene-sulfonamide] was 500 to 2500 nM.

With `O=S(=O)(Nc1ccc(F)c(-c2ccc3c(-c4ncc[nH]4)n[nH]c3c2)c1F)c1cc(Cl)ccc1Cl` [Example 2AV, N-(3-(3-(1H-imidazol-2-yl)-1H-indazol-6-yl)-2,4-difluorophenyl)-2,5-dichlorobenzenesulfonamide], the IC50 is under 500 nM. For the molecule `Cc1ccc(Cl)cc1S(=O)(=O)Nc1ccc(F)c(-c2ccc3c(-c4ncc[nH]4)n[nH]c3c2)c1F` [Example 2AW, N-(3-(3-(1H-imidazol-2-yl)-1H-indazol-6-yl)-2,4-difluorophenyl)-5-chloro-2-methylbenzenesulfonamide], the IC50 was under 500 nM. For `O=S(=O)(Nc1ccc(F)c(-c2ccc3c(-c4ncc[nH]4)n[nH]c3c2F)c1F)c1cc(Cl)ccc1Cl` [Example 2AX, 2,5-dichloro-N-(2,4-difluoro-3-(7-fluoro-3-(1H-imidazol-2-yl)-1H-indazol-6-yl)phenyl)-benzenesulfonamide], the IC50 was under 500 nM.

Molecule `Cc1c(Cl)cccc1S(=O)(=O)Nc1ccc(F)c(-c2ccc3c(-c4ncc[nH]4)n[nH]c3c2F)c1F` [Example 2AY, 3-chloro-N-(2,4-difluoro-3-(7-fluoro-3-(1H-imidazol-2-yl)-1H-indazol-6-yl)phenyl)-2-methylbenzenesulfonamide] displayed an IC50 of under 500 nM. As for `Cc1noc(C)c1S(=O)(=O)Nc1ccc(F)c(-c2ccc3c(-c4ncc[nH]4)n[nH]c3c2F)c1F` [Example 2AZ, N-(2,4-difluoro-3-(7-fluoro-3-(1H-imidazol-2-yl)-1H-indazol-6-yl)phenyl)-3,5-dimethylisoxazole-4-sulfonamide], the IC50 was under 500 nM. With `COc1ccc(S(=O)(=O)Nc2ccc(F)c(-c3ccc4c(-c5ncc[nH]5)n[nH]c4c3F)c2F)cc1` [Example 2B, N-(2,4-difluoro-3-(7-fluoro-3-(1H-imidazol-2-yl)-1H-indazol-6-yl)phenyl)-4-methoxybenzene-sulfonamide] the figure was 500 to 2500 nM. With `COc1ccc(Cl)c(S(=O)(=O)Nc2ccc(F)c(-c3ccc4c(-c5ncc[nH]5)n[nH]c4c3F)c2F)c1` [Example 2BA, 2-chloro-N-(2,4-difluoro-3-(7-fluoro-3-(1H-imidazol-2-yl)-1H-indazol-6-yl)phenyl)-5-methoxybenzene-sulfonamide] the figure was under 500 nM. `O=S(=O)(Nc1ccc(F)c(-c2ccc3c(-c4ncc[nH]4)n[nH]c3c2F)c1F)c1cccc(Cl)c1F` [Example 2BB, 3-chloro-N-(2,4-difluoro-3-(7-fluoro-3-(1H-imidazol-2-yl)-1H-indazol-6-yl)phenyl)-2-fluorobenzenesulfonamide] registered an IC50 of under 500 nM.

A word on the IC50: it is the concentration that gives 50% inhibition. A high value points to lower potency.

Source of the values: patent US20220388964A1 (HiberCell, Inc., priority 2019, published 2022).
